Assay results as given in ChEMBL document CHEMBL1697781, “Assessment of the health effects of chemicals in humans: II. Construction of an adverse effects database for QSAR modeling” (Curr Drug Discov Technol, 2004).

Legend:
Conditions in all cases: human; call rule not given here
Hepatotoxicity [1] = assay: FDA HLAED, liver enzyme composite activity
Hepatotoxicity [2] = assay: FDA HLAED, serum glutamic oxaloacetic transaminase (SGOT) increase
Hepatotoxicity [3] = assay: FDA HLAED, gamma-glutamyl transferase (GGT) increase
Hepatotoxicity [4] = assay: FDA HLAED, lactate dehydrogenase (LDH) increase
Hepatotoxicity [5] = assay: FDA HLAED, serum glutamic pyruvic transaminase (SGPT) increase
Hepatotoxicity [6] = assay: FDA HLAED, alkaline phosphatase increase
For GGT Increase - Index Value in this document: reference of the scale not given here.
For LDH Increase - Index Value in this document: reference of the scale not given here.

| Structure (SMILES) | Composite Activity - Active (Hepatotoxicity [1]) | Composite Activity - Marginal (Hepatotoxicity [1]) | Composite Activity - Score (Hepatotoxicity [1]) | SGOT Increase - Activity Score (Hepatotoxicity [2]) | SGOT Increase - Index Value (Hepatotoxicity [2]) | SGOT Increase - Number of Reports (Hepatotoxicity [2]) | GGT Increase - Activity Score (Hepatotoxicity [3]) | GGT Increase - Index Value (Hepatotoxicity [3]) | GGT Increase - Number of Reports (Hepatotoxicity [3]) | LDH Increase - Activity Score (Hepatotoxicity [4]) | LDH Increase - Index Value (Hepatotoxicity [4]) | LDH Increase - Number of Reports (Hepatotoxicity [4]) | SGPT Increase - Activity Score (Hepatotoxicity [5]) | SGPT Increase - Index Value (Hepatotoxicity [5]) | SGPT Increase - Number of Reports (Hepatotoxicity [5]) | Alkaline Phosphatase Increase - Activity Score (Hepatotoxicity [6]) | Alkaline Phosphatase Increase - Index Value (Hepatotoxicity [6]) | Alkaline Phosphatase Increase - Number of Reports (Hepatotoxicity [6]) | also measured |
| --- | --- | --- | --- | --- | --- | --- | --- | --- | --- | --- | --- | --- | --- | --- | --- | --- | --- | --- | --- |
| CC(C)NCC(O)COc1cccc2[nH]ccc12 (stereo unspecified) [PINDOLOL] | 0 | 0 | Inactive | Inactive | 2.6 | >= 4 | Inactive | 0 | < 4 | Inactive | 0.7 | < 4 | Inactive | 2.6 | >= 4 | Inactive | 1 | < 4 | – |
| CC(=O)O[C@H]1C[C@@H]2CC[C@@H]3[C@H](CC[C@@]4(C)[C@H]3C[C@H](N3CC[N+](C)(C)CC3)[C@@H]4OC(C)=O)[C@@]2(C)C[C@@H]1N1CC[N+](C)(C)CC1.[Br-].[Br-] [PIPECURONIUM BROMIDE] | 0 | 0 | Inactive | Inactive | 0 | < 4 | Inactive | 0 | < 4 | Inactive | 0 | < 4 | Inactive | 0 | < 4 | Inactive | 0 | < 4 | – |
| CCN1CCN(C(=O)N[C@@H](C(=O)N[C@@H]2C(=O)N3[C@@H]2SC(C)(C)[C@@H]3C(=O)O)c2ccccc2)C(=O)C1=O [PIPERACILLIN] | 0 | 0 | Inactive | Inactive | 0.3 | < 4 | Inactive | 0 | < 4 | Inactive | 0 | < 4 | Inactive | 0 | < 4 | Inactive | 0.3 | < 4 | – |
| CC(C)(C)NCC(O)c1ccc(O)c(CO)n1 (stereo unspecified) [PIRBUTEROL] | 0 | 0 | Inactive | Inactive | 0.3 | < 4 | Inactive | 0 | < 4 | Inactive | 0 | < 4 | Inactive | 0 | < 4 | Inactive | 0 | < 4 | – |
| CN1C(C(=O)Nc2ccccn2)=C(O)c2ccccc2S1(=O)=O [PIROXICAM] | 0 | 0 | Inactive | Inactive | 1.7 | >= 4 | Inactive | 0 | < 4 | Inactive | 0.5 | < 4 | Inactive | 0.9 | >= 4 | Inactive | 2.6 | >= 4 | – |
| COc1cc([C@@H]2c3cc4c(cc3[C@H](O)[C@H]3COC(=O)[C@H]23)OCO4)cc(OC)c1OC [PODOFILOX] | 0 | 0 | Inactive | Inactive | 0 | < 4 | Inactive | 0 | < 4 | Inactive | 0 | < 4 | Inactive | 0 | < 4 | Inactive | 0 | < 4 | – |
| CC[C@H](C)C(=O)O[C@H]1C[C@H](O)C=C2C=C[C@H](C)[C@H](CC[C@@H](O)C[C@@H](O)CC(=O)O)[C@H]21 [PRAVASTATIN] | 4 | 1 | Active | Active | 6.2 | >= 4 | Active | 5.3 | >= 4 | Marginally Active | 3.1 | >= 4 | Active | 6.3 | >= 4 | Active | 4.5 | >= 4 | – |
| O=C1CN=C(c2ccccc2)c2cc(Cl)ccc2N1CC1CC1 [PRAZEPAM] | 0 | 0 | Inactive | Inactive | 0.3 | < 4 | Inactive | 0 | < 4 | Inactive | 0 | < 4 | Inactive | 0.3 | < 4 | Inactive | 0.3 | < 4 | – |
| CCN(CC)CCNC(=O)c1ccc(N)cc1 [PROCAINAMIDE] | 0 | 0 | Inactive | Inactive | 0 | < 4 | Inactive | 0 | < 4 | Inactive | 0 | < 4 | Inactive | 0 | < 4 | Inactive | 0 | < 4 | – |
| CCCNCC(O)COc1ccccc1C(=O)CCc1ccccc1 (stereo unspecified) [PROPAFENONE] | – | – | – | Active | 5.7 | >= 4 | Inactive | 2.9 | < 4 | Inactive | 1.9 | < 4 | Active | 4.7 | >= 4 | Active | 7.6 | >= 4 | Composite Activity - Active (Hepatotoxicity [1]; Liver): 3; Composite Activity - Marginal (Hepatotoxicity [1]; Liver): 0; Composite Activity - Score (Hepatotoxicity [1]; Liver): Active |
| CC(C)c1cccc(C(C)C)c1O [PROPOFOL] | – | – | – | Inactive | 0.7 | >= 4 | Inactive | 0.1 | < 4 | Inactive | 0.5 | >= 4 | Inactive | 0.5 | >= 4 | Inactive | 0.4 | >= 4 | Composite Activity - Active (Hepatotoxicity [1]; Liver): 0; Composite Activity - Marginal (Hepatotoxicity [1]; Liver): 0; Composite Activity - Score (Hepatotoxicity [1]; Liver): Inactive |
| Fc1ccccc1C1=NCC(=S)N(CC(F)(F)F)c2ccc(Cl)cc21 [QUAZEPAM] | 0 | 0 | Inactive | Inactive | 0 | < 4 | Inactive | 0 | < 4 | Inactive | 0 | < 4 | Inactive | 0 | < 4 | Inactive | 0 | < 4 | – |
